Laboratory results as given in US6395684B1, “Selective herbicides based on a substituted phenyl sulfonyl amino carbonyl triazolinone” (Bayer Aktiengesellschaft, priority 1998, dated 2002).
Where a name gives a salt, the structure may show the parent alone.

Tests used:
Format in all cases: in vivo
[1] = tested on: Agropyron; experiment: Post-emergence test/greenhouse; conditions: greenhouse, after three weeks
Description: (§1) Post-emergence Test/greenhouse Solvent: 5 parts by weight of acetone Emulsifier: 1 part by weight of alkylaryl polyglycol ether To produce a suitable preparation of active compound, 1 part by weight of active compound is mixed with the stated amount of solvent, the stated amount of emulsifier is added and the concentrate is diluted with water to the desired concentration. Test plants which have a height of 5-15 cm are sprayed with the preparation of active compound such that the particular amounts of active compound desired are applied per unit area. The concentration of the spray liquor is chosen so that the particular amounts of active compound desired are applied in 500 l of water/ha. After three weeks, the degree of damage to the plants is assessed in % damage in comparison to the development of the untreated control. The figures denote: 0%=no effect (like untreated control) 100% total destruction

[2] = tested on: Alopecurus; experiment: Post-emergence test/greenhouse; conditions: greenhouse, after three weeks
Description: as §1

[3] = tested on: Avena; experiment: Post-emergence test/greenhouse; conditions: greenhouse, after three weeks
Description: as §1

[4] = tested on: Bromus; experiment: Post-emergence test/greenhouse; conditions: greenhouse, after three weeks
Description: as §1

[5] = tested on: Lolium; experiment: Post-emergence test/greenhouse; conditions: greenhouse, after three weeks
Description: as §1

[6] = tested on: Wheat; experiment: Post-emergence test/greenhouse; conditions: greenhouse; for degree of damage to the plants (% damage in comparison to the untreated control): Wheat, after three weeks; for compatibility with crop plants (wheat), in words: sodium salt of (I) at 60 g/ha
Description: as §1

[7] = tested on: weeds, such as, for example, Agropyron, Alopecurus, Avena, Bromus and Lolium; experiment: Post-emergence test/greenhouse, summary for weeds; conditions: greenhouse
Description: Post-emergence Test/greenhouse Solvent: 5 parts by weight of acetone Emulsifier: 1 part by weight of alkylaryl polyglycol ether To produce a suitable preparation of active compound, 1 part by weight of active compound is mixed with the stated amount of solvent, the stated amount of emulsifier is added and the concentrate is diluted with water to the desired concentration. Test plants which have a height of 5-15 cm are sprayed with the preparation of active compound such that the particular amounts of active compound desired are applied per unit area. The concentration of the spray liquor is chosen so that the particular amounts of active compound desired are applied in 500 l of water/ha. After three weeks, the degree of damage to the plants is assessed in % damage in comparison to the development of the untreated control. […] [“ai.”=“active ingredient”].

[8] = tested on: Alopecurus; experiment: Pre-emergence test/greenhouse; conditions: greenhouse, after three weeks
Description: (§2) Pre-emergence Test/greenhouse Solvent: 5 parts by weight of acetone Emulsifier: 1 part by weight of alkylaryl polyglycol ether To produce a suitable preparation of active compound, 1 part by weight of active compound is mixed with the stated amount of solvent, the stated amount of emulsifier is added and the concentrate is diluted with water to the desired concentration. Seeds of the test plants are sown in normal soil. After about 24 hours, the soil is sprayed with the preparation of active compound such that the particular amount of active compound desired is applied per unit area. The concentration of the spray liquor is chosen so that the particular amount of active compound desired is applied in 500 litres of water per hectare. After three weeks, the degree of damage to the plants is tested in % damage in comparison to the development of the untreated control. The figures denote: 0% no effect (like untreated control) 100%=total destruction

[9] = tested on: Avena; experiment: Pre-emergence test/greenhouse; conditions: greenhouse, after three weeks
Description: as §2

[10] = tested on: Bromus; experiment: Pre-emergence test/greenhouse; conditions: greenhouse, after three weeks
Description: as §2

[11] = tested on: Lolium; experiment: Pre-emergence test/greenhouse; conditions: 500 g ai./ha, greenhouse, after three weeks
Description: as §2

[12] = tested on: Setaria; experiment: Pre-emergence test/greenhouse; conditions: 500 g ai./ha, greenhouse, after three weeks
Description: as §2

[13] = tested on: Wheat; experiment: Pre-emergence test/greenhouse; conditions: greenhouse; for degree of damage to the plants (% damage in comparison to the untreated control): Wheat, after three weeks
Description: as §2

[14] = tested on: weeds, such as, for example, Agropyron, Alopecurus, Avena, Bromus, Lolium, Poa, Setaria and Sinapis; experiment: Pre-emergence test/greenhouse, summary for weeds; conditions: greenhouse
Description: as §2, with “control.” for “control. The figures denote: 0% no effect (like untreated control) 100%=total destruction”

[15] = tested on: Agropyron; experiment: Pre-emergence test/greenhouse; conditions: 15 g ai./ha, greenhouse, after three weeks
Description: as §2

[16] = tested on: Amaranthus; experiment: Pre-emergence test/greenhouse; conditions: 15 g ai./ha, greenhouse, after three weeks
Description: as §2

[17] = tested on: Poa; experiment: Pre-emergence test/greenhouse; conditions: 15 g ai./ha, greenhouse, after three weeks
Description: as §2

[18] = tested on: Sinapis; experiment: Pre-emergence test/greenhouse; conditions: 15 g ai./ha, greenhouse, after three weeks
Description: as §2

Compound | degree of damage to the plants (% damage in comparison to the untreated control) ([1]; 60 g ai./ha) [%] | degree of damage to the plants (% damage in comparison to the untreated control) ([2]; 60 g ai./ha) [%] | degree of damage to the plants (% damage in comparison to the untreated control) ([3]; 60 g ai./ha) [%] | degree of damage to the plants (% damage in comparison to the untreated control) ([4]; 60 g ai./ha) [%] | degree of damage to the plants (% damage in comparison to the untreated control) ([5]; 60 g ai./ha) [%] | degree of damage to the plants (% damage in comparison to the untreated control) ([6]; 60 g ai./ha) [%] | herbicidal activity (in words, compared with the sodium salt of (I)) [7] | herbicidal activity (in words, compared with the sodium salt of (I)) [14] | compatibility with crop plants (wheat), in words [6] | degree of damage to the plants (% damage in comparison to the untreated control) [15] [%] | degree of damage to the plants (% damage in comparison to the untreated control) [16] [%] | degree of damage to the plants (% damage in comparison to the untreated control) ([9]; 15 g ai./ha) [%] | degree of damage to the plants (% damage in comparison to the untreated control) [17] [%] | degree of damage to the plants (% damage in comparison to the untreated control) [18] [%] | degree of damage to the plants (% damage in comparison to the untreated control) ([13]; 15 g ai./ha) [%] | further results
CCCCOc1nn(C(=O)NS(=O)(=O)c2ccccc2C(=O)OC)c(=O)n1C [(A), 2-(2-Methoxycarbonyl-phenylsulphonylaminocarbonyl)-4-methyl-5-butoxy-2,4-dihydro-3H-1,2,4-triazol-3-one] | 0 | 0 | 50 | 0 | 0 | 0 | considerably weaker herbicidal activity | considerably weaker herbicidal activity | – | – | – | – | – | – | – | degree of damage to the plants (% damage in comparison to the untreated control) ([8]; 500 g ai./ha): 20%; degree of damage to the plants (% damage in comparison to the untreated control) ([9]; 500 g ai./ha): 0%; degree of damage to the plants (% damage in comparison to the untreated control) ([10]; 500 g ai./ha): 30%; degree of damage to the plants (% damage in comparison to the untreated control) [11]: 0%; degree of damage to the plants (% damage in comparison to the untreated control) [12]: 0%; degree of damage to the plants (% damage in comparison to the untreated control) ([13]; 500 g ai./ha): 0%
CCOc1nn(C(=O)NS(=O)(=O)c2ccccc2C(=O)OC)c(=O)n1C [(B), 2-(2-Methoxycarbonyl-phenylsulphonylaminocarbonyl)-4-methyl-5-ethoxy-2,4-dihydro-3H-1,2,4-triazol-3-one-sodium salt] | – | – | – | – | – | – | – | – | not entirely compatible with wheat | 40 | 70 | 60 | 70 | 70 | 40 | degree of damage to the plants (% damage in comparison to the untreated control) ([1]; 30 g ai./ha): 90%; degree of damage to the plants (% damage in comparison to the untreated control) ([2]; 30 g ai./ha): 90%; degree of damage to the plants (% damage in comparison to the untreated control) ([3]; 30 g ai./ha): 90%; degree of damage to the plants (% damage in comparison to the untreated control) ([4]; 30 g ai./ha): 80%; degree of damage to the plants (% damage in comparison to the untreated control) ([5]; 30 g ai./ha): 90%; degree of damage to the plants (% damage in comparison to the untreated control) ([6]; 30 g ai./ha): 60%; compatibility with crop plants (wheat), in words ([13]; sodium salt of (I) at 15 g/ha to 60 g/ha): not entirely compatible with wheat
COC(=O)c1ccccc1S(=O)(=O)NC(=O)n1nc(OC(C)C)n(C)c1=O.[Na] [(C), 2-(2-Methoxycarbonyl-phenylsulphonylaminocarbonyl)-4-methyl-5-isopropoxy-2,4-dihydro-3H-1,2,4-triazol-3-one-sodium salt] | 60 | 70 | 50 | 70 | 70 | 0 | considerably weaker herbicidal activity | considerably weaker herbicidal activity | – | – | – | – | – | – | – | –
CCCOc1nn(C(=O)NS(=O)(=O)c2ccccc2C(=O)OCC)c(=O)n1C [(D), 2-(2-Ethoxycarbonyl-phenylsulphonylaminocarbonyl)-4-methyl-5-propoxy-2,4-dihydro-3H-1,2,4-triazol-3-one] | 70 | – | 20 | 80 | 30 | 0 | considerably weaker herbicidal activity | considerably weaker herbicidal activity | – | – | – | – | – | – | – | –
CCCOn1c(C)nn(C(=O)NS(=O)(=O)c2ccccc2C(=O)OC)c1=O [(E), 2-(2-Methoxyxcarbonyl-phenylsulphonylaminocarbonyl)-4-propoxy-5-methyl-2,4-dihydro-3H-1,2,4-triazol-3-one] | – | – | – | – | – | – | considerably weaker herbicidal activity | considerably weaker herbicidal activity | – | – | – | – | – | – | – | degree of damage to the plants (% damage in comparison to the untreated control) ([2]; 250 g ai./ha): 70%; degree of damage to the plants (% damage in comparison to the untreated control) ([3]; 250 g ai./ha): 0%; degree of damage to the plants (% damage in comparison to the untreated control) ([4]; 250 g ai./ha): 50%; degree of damage to the plants (% damage in comparison to the untreated control) ([5]; 250 g ai./ha): 50%; degree of damage to the plants (% damage in comparison to the untreated control) ([6]; 250 g ai./ha): 0%
CCCOc1nn(C(=O)NS(=O)(=O)c2ccccc2C(=O)OC)c(=O)n1CC [(F), 2-(2-Methoxycarbonyl-phenylsulphonylaminocarbonyl)-4-ethyl-5-propoxy-2,4-dihydro-3H-1,2,4-triazol-3-one] | 50 | 50 | 40 | 50 | 30 | 20 | considerably weaker herbicidal activity | considerably weaker herbicidal activity | not entirely compatible with wheat | 0 | 70 | 0 | 0 | 70 | 0 | degree of damage to the plants (% damage in comparison to the untreated control) ([8]; 15 g ai./ha): 40%; degree of damage to the plants (% damage in comparison to the untreated control) ([10]; 15 g ai./ha): 20%
